Measurements reported in paper PMC5071873, “The Effects of Puerarin on Rat Ventricular Myocytes and the Potential Mechanism” (Scientific Reports, 2016).

Experiments:
Type in all cases: cell-based
[1] = system: rat ventricular myocytes; test: Action potential recording on isolated rat ventricular myocytes; conditions: for APA: control 112.5 ± 6.3; for Vmax: control 226.9 ± 12.4; for RMP: control −80.1 ± 2.7
Method: (§1) The Tyrode’s solution contained (mM): 126 NaCl, 5.4 KCl, 1.8 CaCl2, 1 MgCl2, 0.33 NaH2PO4, 10 HEPES and 10 glucose, pH 7.4 (adjusted with NaOH). The Ca^2+-free Tyrode’s solution was prepared by removing CaCl2 from the Tyrode’s solution. The Kreb’s solution used for cell storage contained (mM): 70 glutamic acid, 30 KCl, 15 taurine, 0.5 MgCl2, 10 KH2PO4, 0.5 EGTA, 10 HEPES, 10 glucose, and 1% albumin, pH 7.4 (adjusted with KOH). The enzyme solution used for the rat cardiomyocyte isolation contained 0.08 g/L collagenase (type II) and 1.0 g/L BSA in Kreb’s solution. For action potential recording on cardiomyocyte, the pipette solution contained (mM): 100 potassium aspartate, 30 KCl, 1 MgCl2, 5 Mg-ATP, 5 EGTA, 5 HEPES, pH 7.3 (adjusted with KOH); the Tyrode’s solution was used as the standard bath solution. For whole-cell recording of IKs on myocytes, the pipette solution contained (mM): 125 potassium aspartate, 20 KCl, 1 MgCl2, 5 Mg-ATP, 10 EGTA, 5 HEPES, pH 7.3 (adjusted with KOH); the bath solution contained (mM): 132 NaCl, 4 KCl, 1.8 CaCl2, 1.2 MgCl2, 10 HEPES, 5 glucose, pH 7.4 (adjusted with NaOH). 3 μM nifedipine and 5 μM E-4031 were used to block the calcium current and IKr, respectively. For whole-cell recording on HEK-293 cells, the pipette solution contained (mM): 140 KCl, 2 MgCl2, 10 HEPES, 0.1 EGTA, 4 K2-ATP, pH 7.3 (adjusted with KOH); the bath solution contained (mM): 120 NaCl, 5 KCl, 1.5 CaCl2, 1 MgCl2, 10 HEPES, 10 glucose, pH 7.4 (adjusted with NaOH). For single-channel recording, the pipette solution (extracellular) contained (mM): 145 KCl, 10 HEPES, 10 glucose, pH 7.4 (adjusted with KOH); the bath solution (intracellular) contained (mM): 145 KCl, 1.2 MgCl2, 10 HEPES, 0.1 EGTA, pH 7.38 (adjusted with KOH).
Single ventricular myocytes were isolated from adult rat hearts via enzymatic dissociation as previously described. Briefly, the rats were anesthetised with 25% chloral hydrate (0.1 g/100 g). Their hearts were excised rapidly and retrogradely perfused on a Langendorff apparatus with a Ca^2+-free Tyrode’s solution for 5 min before the perfusate was switched to an enzymatic solution for 10–20 min. The perfusate was finally changed to Kreb’s solution for 5 min. The perfusates were bubbled with 95% O2 + 5% CO2 and maintained at 37 °C. The ventricles w ere cut into small chunks and gently agitated in Kreb’s solution. The cells were filtered through nylon mesh (pore size 200 μm) and stored in Kreb’s solution at 4 °C.
Action potentials were elicited at 1 Hz by 2 ms current pulses applied using the patch pipette.
Cell suspensions were transferred into a chamber on the stage of a Nikon Eclipse Ti inverted microscope (Tokyo, Japan). The whole-cell recordings were performed using isolated single ventricular myocytes. Patch electrodes were pulled from a horizontal microelectrode puller (P-1000, Sutter Instrument Co, USA) and fire polished to final tip resistance of 4.0–8.0 MΩ when filled with internal solutions. Signals were amplified with an Axopatch 200B amplifier (Axon Instruments, USA) and filtered at 1 kHz. The pCLAMP 9.0 software was used to generate current and voltage clamp protocols, acquire data, and analyse the current traces. The whole-cell series resistance was compensated to more than 80%. All of the experiments were performed at room temperature (22 ± 1 °C). The whole-cell IK1 was elicited by a ramp voltage protocol from −140 to + 40 mV in 1 s, or at a 0 mV holding potential to test potentials from −140 to + 40 mV in 10 mV increments. The IK1 was calculated as the difference between the peak inward current and the holding current level. The whole-cell Kv7.1/IKs were elicited from a −30 mV holding potential to test potentials from −80 to + 40 mV in 10 mV increments.

[2] = biological target: T1, Kir2.3 (Homo sapiens, UniProt P48050); test: Whole-cell patch clamp of Kir2.3 currents (ramp voltage protocol) in transfected HEK-293 cells
T1 sequence (P48050 1-445): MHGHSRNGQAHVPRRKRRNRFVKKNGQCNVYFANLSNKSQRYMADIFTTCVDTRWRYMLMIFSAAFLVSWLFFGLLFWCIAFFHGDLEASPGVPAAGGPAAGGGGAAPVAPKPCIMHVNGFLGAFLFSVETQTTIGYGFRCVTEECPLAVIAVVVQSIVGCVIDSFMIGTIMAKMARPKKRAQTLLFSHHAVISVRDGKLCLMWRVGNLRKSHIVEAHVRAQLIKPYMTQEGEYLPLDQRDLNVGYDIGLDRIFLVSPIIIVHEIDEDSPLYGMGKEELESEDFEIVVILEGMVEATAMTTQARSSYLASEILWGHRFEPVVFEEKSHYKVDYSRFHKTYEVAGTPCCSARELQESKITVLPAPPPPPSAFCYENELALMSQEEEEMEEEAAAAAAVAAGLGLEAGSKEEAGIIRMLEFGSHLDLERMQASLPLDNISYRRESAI
Method: as §1, with “3 μM nifedipine and 5 μM E-4031 were used to block the calcium current and IKr, respectively. For whole-cell recording on HEK-293 cells, the pipette solution contained (mM): 140 KCl, 2 MgCl2, 10 HEPES, 0.1 EGTA, 4 K2-ATP, pH 7.3 (adjusted with KOH); the bath solution contained (mM): 120 NaCl, 5 KCl, 1.5 CaCl2, 1 MgCl2, 10 HEPES, 10 glucose, pH 7.4 (adjusted with NaOH). For single-channel recording, the pipette solution (extracellular) contained (mM): 145 KCl, 10 HEPES, 10 glucose, pH 7.4 (adjusted with KOH); the bath solution (intracellular) contained (mM): 145 KCl, 1.2 MgCl2, 10 HEPES, 0.1 EGTA, pH 7.38 (adjusted with KOH).” left out
(§2) Cell suspensions were transferred into a chamber on the stage of a Nikon Eclipse Ti inverted microscope (Tokyo, Japan). […] The IK1 was calculated as the difference between the peak inward current and the holding current level. […]

[3] = biological target: T2, IKs (Rattus norvegicus, UniProt Q9Z0N7); test: Whole-cell recording of IKs on rat ventricular myocytes; conditions: puerarin 100 μM
T2 construct: endogenous in cells; host or cells: isolated adult rat ventricular myocytes
Method: as §1, with “3 μM nifedipine and 5 μM E-4031 were used to block the calcium current and IKr, respectively. For whole-cell recording on HEK-293 cells, the pipette solution contained (mM): 140 KCl, 2 MgCl2, 10 HEPES, 0.1 EGTA, 4 K2-ATP, pH 7.3 (adjusted with KOH); the bath solution contained (mM): 120 NaCl, 5 KCl, 1.5 CaCl2, 1 MgCl2, 10 HEPES, 10 glucose, pH 7.4 (adjusted with NaOH). For single-channel recording, the pipette solution (extracellular) contained (mM): 145 KCl, 10 HEPES, 10 glucose, pH 7.4 (adjusted with KOH); the bath solution (intracellular) contained (mM): 145 KCl, 1.2 MgCl2, 10 HEPES, 0.1 EGTA, pH 7.38 (adjusted with KOH).” left out
as §2

For `O=c1c(-c2ccc(O)cc2)coc2c([C@@H]3O[C@H](CO)[C@@H](O)[C@H](O)[C@H]3O)c(O)ccc12` [Puerarin, 8-c-glucoside of daidzein], the APD50 ([1]; puerarin 0.01 mM, control 71.8 ± 11.8) was 86.9 ± 10.7 ms, the APA ([1]; puerarin 0.01 mM) was 109.8 ± 8.5 mV and the APD90 ([1]; puerarin 0.01 mM, control 164.6 ± 21.4) was 188.3 ± 11.5 ms. For the same molecule, the Vmax ([1]; puerarin 0.01 mM) was 217.5 ± 10.7 V/s, the RMP ([1]; puerarin 0.01 mM) was −80.5 ± 2.2 mV and the “effect on RMP, APA and Vmax” value ([1]; puerarin 100 μM) was “not affected”. The “effect on isoproterenol-reduced APD (APD50, APD90)” value ([1]; puerarin 100 μM with isoproterenol 10 nM) was “significantly offseted the reduced effect of isoproterenol”, the APD50 ([1]; puerarin 100 μM, from (71.8 ± 11.8) mS) was 100.5 ± 14.1 mS and the APD90 ([1]; puerarin 100 μM, from (164.6 ± 21.4) mS) was 221.6 ± 25.7 mS. It also gave an APD50 ([1]; puerarin 0.1 mM, control 71.8 ± 11.8) of 100.5 ± 14.1 ms, an APA ([1]; puerarin 0.1 mM) of 114.2 ± 4.9 mV and an APD90 ([1]; puerarin 0.1 mM, control 164.6 ± 21.4) of 221.6 ± 25.7 ms. It also gave a Vmax ([1]; puerarin 0.1 mM) of 242.1 ± 13.8 V/s, an RMP ([1]; puerarin 0.1 mM) of −80.3 ± 1.6 mV and an APD50 ([1]; puerarin 1 mM, control 71.8 ± 11.8) of 123.6 ± 25.4 ms. The APA ([1]; puerarin 1 mM) was 115.9 ± 6.2 mV, the APD90 ([1]; puerarin 1 mM, control 164.6 ± 21.4) was 278.7 ± 28.2 ms and the Vmax ([1]; puerarin 1 mM) was 236.1 ± 15.9 V/s. The RMP ([1]; puerarin 1 mM) was −79.7 ± 1.5 mV, the APD50 ([1]; puerarin 10 mM, control 71.8 ± 11.8) was 131.4 ± 19.6 ms and the APA ([1]; puerarin 10 mM) was 112.6 ± 4.7 mV. For the same molecule, the APD90 ([1]; puerarin 10 mM, control 164.6 ± 21.4) was 330.1 ± 22.3 ms, the Vmax ([1]; puerarin 10 mM) was 238.4 ± 11.5 V/s and the RMP ([1]; puerarin 10 mM) was −75.3 ± 2.4 mV. For the same molecule, the APD50 ([1]; puerarin 100 mM, control 71.8 ± 11.8) was 146.9 ± 21.8 ms, the APA ([1]; puerarin 100 mM) was 113.8 ± 5.1 mV and the APD90 ([1]; puerarin 100 mM, control 164.6 ± 21.4) was 415.6 ± 28.4 ms. It also gave a Vmax ([1]; puerarin 100 mM) of 240.6 ± 12.1 V/s, an RMP ([1]; puerarin 100 mM) of −74.7 ± 2.6 mV and an APD50 ([1]; puerarin 200 mM, control 71.8 ± 11.8) of 162.3 ± 23.5 ms. The APD90 ([1]; puerarin 200 mM, control 164.6 ± 21.4) was 439.5 ± 29.6 ms, the RMP ([1]; puerarin 200 mM) was −73.5 ± 2.1 mV and the APA ([1]; puerarin) was 111.7 ± 5.6 mV. The Vmax ([1]; puerarin) was 237.8 ± 10.4 V/s, the “effect on Kir2.3 currents at low concentrations” value ([2]; 10 μM, 100 μM, 1 mM) was “less effect” and the “Hill coefficient, inhibition of Kir2.3” value ([2]; non-linear Hill fit) was 0.984. For the same molecule, the “effect on forskolin-activated IKs current in rat cardiac myocytes” value [3] was “antagonized such activation effect”.
